Results on 10 compounds are retold here after PubChem BioAssay AID1259407 (Chemical Carcinogenesis Research Information System (CCRIS), 2018).

Structures are written as SMILES. Activity calls are given as the source filed them. How the calls were made is not given here.

The series relates to CCRIS mutagenicity, Ames/micronucleus/aberration tests. As to the kind of experiment: CCRIS mutagenicity studies.
Setting [1] is: Test System: AMES SALMONELLA TYPHIMURIUM, Strain/Indicator: TA100, Metabolic Activation: NONE, Method: PREINCUBATION
Where [2] appears, read: Test System: MOUSE LYMPHOMA, Strain/Indicator: L5178Y (TK+/TK-), Metabolic Activation: NONE, Method: SUSPENSION/PLATE.
Setting [3] is: Test System: MOUSE LYMPHOMA, Strain/Indicator: L5178Y (TK+/TK-), Metabolic Activation: RAT, LIVER, S-9, AROCLOR 1254, Method: SUSPENSION/PLATE.
[4] abbreviates: Test System: AMES SALMONELLA TYPHIMURIUM, Strain/Indicator: TA100, Metabolic Activation: NONE, Method: STANDARD PLATE.
Where [5] appears, read: Test System: AMES SALMONELLA TYPHIMURIUM, Strain/Indicator: TA98, Metabolic Activation: NONE, Method: STANDARD PLATE.

As for `c1cnc2c(c1)ccc1cccnc12`, the mutagenic call (Test System: AMES SALMONELLA TYPHIMURIUM, Strain/Indicator: TA98, Metabolic Activation: HAMSTER, LIVER, S-9, AROCLOR 1254 (10%), Method: PREINCUBATION) is “inactive; negative”; the mutagenic call (Test System: AMES SALMONELLA TYPHIMURIUM, Strain/Indicator: TA98, Metabolic Activation: NONE, Method: PREINCUBATION) was “inactive; negative”; the mutagenic call (Test System: AMES SALMONELLA TYPHIMURIUM, Strain/Indicator: TA98, Metabolic Activation: RAT, LIVER, S-9, AROCLOR 1254 (10%), Method: PREINCUBATION) was “inactive; negative”; the mutagenic call (Test System: AMES SALMONELLA TYPHIMURIUM, Strain/Indicator: TA100, Metabolic Activation: HAMSTER, LIVER, S-9, AROCLOR 1254 (10%), Method: PREINCUBATION) is “inactive; negative”; the mutagenic call under setting [1] is “inactive; negative”; the mutagenic call (Test System: AMES SALMONELLA TYPHIMURIUM, Strain/Indicator: TA100, Metabolic Activation: RAT, LIVER, S-9, AROCLOR 1254 (10%), Method: PREINCUBATION) is “inactive; negative”. Besides, the mutagenic call is, setting by setting: (Test System: AMES SALMONELLA TYPHIMURIUM, Strain/Indicator: TA100, Metabolic Activation: RAT, LIVER, S-9, PHENOBARBITAL AND 5,6-BENZOFLAVONE, Method: PREINCUBATION) “inactive; negative”; (Test System: AMES SALMONELLA TYPHIMURIUM, Strain/Indicator: TA1535, Metabolic Activation: HAMSTER, LIVER, S-9, AROCLOR 1254 (10%), Method: PREINCUBATION) “inactive; negative”; (Test System: AMES SALMONELLA TYPHIMURIUM, Strain/Indicator: TA1535, Metabolic Activation: NONE, Method: PREINCUBATION) “inactive; negative”; (Test System: AMES SALMONELLA TYPHIMURIUM, Strain/Indicator: TA1535, Metabolic Activation: RAT, LIVER, S-9, AROCLOR 1254 (10%), Method: PREINCUBATION) “inactive; negative”; (Test System: AMES SALMONELLA TYPHIMURIUM, Strain/Indicator: TA1537, Metabolic Activation: HAMSTER, LIVER, S-9, AROCLOR 1254 (10%), Method: PREINCUBATION) “inactive; negative”; (Test System: AMES SALMONELLA TYPHIMURIUM, Strain/Indicator: TA1537, Metabolic Activation: NONE, Method: PREINCUBATION) “inactive; negative”. Moreover, the mutagenic call was “inactive; negative” (Test System: AMES SALMONELLA TYPHIMURIUM, Strain/Indicator: TA1537, Metabolic Activation: RAT, LIVER, S-9, AROCLOR 1254 (10%), Method: PREINCUBATION); “active; positive. reevaluation of results: positive” under setting [2]; “active; positive. reevaluation of results: positive” under setting [3].

In the case of `CC\C=C/C=C\C=C/C=C\C=C/OCC(C)O` (configuration not stated), the mutagenic call under setting [1] was “active; positive”.

For `NC(CO)Cc1cnc[nH]1` (configuration not stated), the mutagenic call reads like this: under setting [2], “inactive; negative. reevaluation of results: negative”; under setting [3], “inactive; negative. reevaluation of results: negative”.

As for `O=[N+]([O-])c1ccc2c(CCO)c[nH]c2c1`, the mutagenic call by setting is: (Test System: AMES SALMONELLA TYPHIMURIUM, Strain/Indicator: TA97A, Metabolic Activation: NONE, Method: STANDARD PLATE) “active; positive”; (Test System: AMES SALMONELLA TYPHIMURIUM, Strain/Indicator: TA98(1,8-DNP6), Metabolic Activation: NONE, Method: STANDARD PLATE) “active; positive”; (Test System: AMES SALMONELLA TYPHIMURIUM, Strain/Indicator: TA98(NR), Metabolic Activation: NONE, Method: STANDARD PLATE) “active; positive”; (Test System: AMES SALMONELLA TYPHIMURIUM, Strain/Indicator: TA98, Metabolic Activation: NONE, Method: SEM (1.1) 100-2000 NM (TEST MATERIAL SOLVENT: DMSO) 100-2000 N 2000 N) “active; positive”; under setting [4], “active; positive”; (Test System: AMES SALMONELLA TYPHIMURIUM, Strain/Indicator: TA1535, Metabolic Activation: NONE, Method: STANDARD PLATE) “inactive; negative”. The mutagenic call (Test System: AMES SALMONELLA TYPHIMURIUM, Strain/Indicator: TA1537, Metabolic Activation: NONE, Method: STANDARD PLATE) is “active; positive”.

Consider `O=C(O)c1ccccc1Nc1cccc(C(F)(F)F)c1`, for which the mutagenic call is, setting by setting: (Test System: AMES SALMONELLA TYPHIMURIUM, Strain/Indicator: TA98, Metabolic Activation: RAT, LIVER, S-9, PCB, Method: STANDARD PLATE) “inactive; negative”; (Test System: AMES SALMONELLA TYPHIMURIUM, Strain/Indicator: TA100, Metabolic Activation: RAT, LIVER, S-9, PCB, Method: STANDARD PLATE) “inactive; negative”; (Test System: AMES SALMONELLA TYPHIMURIUM, Strain/Indicator: TA1537, Metabolic Activation: RAT, LIVER, S-9, PCB, Method: STANDARD PLATE) “inactive; negative”; (Test System: AMES SALMONELLA TYPHIMURIUM, Strain/Indicator: TA1538, Metabolic Activation: RAT, LIVER, S-9, PCB, Method: STANDARD PLATE) “inactive; negative”; (Test System: E. COLI, Strain/Indicator: WP2 UVRA, Metabolic Activation: RAT, LIVER, S-9, PCB, Method: STANDARD PLATE) “inactive; negative”.

On to `C=CC`, for which the mutagenic call reads like this: under setting [2], “inactive; negative”; (Test System: MOUSE LYMPHOMA, Strain/Indicator: L5178Y (TK+/TK-), Metabolic Activation: RAT, LIVER, S-9, Method: SUSPENSION/PLATE) “inactive; negative”.

With `Nc1cnc2c(c1)nc1ccccn12`, the mutagenic call is, setting by setting: under setting [5], “inactive; negative”; (Test System: AMES SALMONELLA TYPHIMURIUM, Strain/Indicator: TA98, Metabolic Activation: RAT, LIVER, CYTOSOL, AROCLOR 1254, Method: STANDARD PLATE) “inactive; negative”; (Test System: AMES SALMONELLA TYPHIMURIUM, Strain/Indicator: TA98, Metabolic Activation: RAT, LIVER, MICROSOMES, AROCLOR 1254, Method: STANDARD PLATE) “inactive; negative”; (Test System: AMES SALMONELLA TYPHIMURIUM, Strain/Indicator: TA98, Metabolic Activation: RAT, LIVER, S-9, AROCLOR 1254, Method: STANDARD PLATE) “active; positive”.

On to `O[C@@H]1[C@@H]2O[C@@H]2c2c(ccc3nc4ccc5ccccc5c4cc23)[C@H]1O`, for which the mutagenic call by setting is: under setting [5], “active; positive”; (Test System: AMES SALMONELLA TYPHIMURIUM, Strain/Indicator: TA100, Metabolic Activation: GUINEA PIG, LIVER, S-9, 3-METHYLCHOLANTHRENE, Method: STANDARD PLATE) “active; positive”; under setting [4], “active; positive”; (Test System: CHINESE HAMSTER V-79, Strain/Indicator: V-79/6-THIOGUANINE, Metabolic Activation: NONE) “active; positive”.

With `ClC1(Cl)[C@H](c2ccccc2)[C@@H]1c1ccccc1`, the mutagenic call (Test System: CHINESE HAMSTER V-79, Strain/Indicator: V-79 (HPRT)/6-THIOGUANINE, Metabolic Activation: NONE) is “inactive; negative”.

For `CCCCCCC[N+](=O)[O-]`, where the note is “Test System: UDS RAT HEPATOCYTES, Strain/Indicator: THY INCORP, Metabolic Activation: NONE”, the mutagenic call was “inactive; negative”.
